From patent publication US8614206B2 (Genentech, Inc., priority 2011, dated 2013)
pEC50, pIC50, pKi: −log10 of the molar value.

biological target: PIM1 (Homo sapiens (Human), UniProt P11309); assay: Pim kinase inhibition, PIM1 LC3K (Example 901); assay type: biochemical; conditions: not given
Sequence (P11309 whole entry): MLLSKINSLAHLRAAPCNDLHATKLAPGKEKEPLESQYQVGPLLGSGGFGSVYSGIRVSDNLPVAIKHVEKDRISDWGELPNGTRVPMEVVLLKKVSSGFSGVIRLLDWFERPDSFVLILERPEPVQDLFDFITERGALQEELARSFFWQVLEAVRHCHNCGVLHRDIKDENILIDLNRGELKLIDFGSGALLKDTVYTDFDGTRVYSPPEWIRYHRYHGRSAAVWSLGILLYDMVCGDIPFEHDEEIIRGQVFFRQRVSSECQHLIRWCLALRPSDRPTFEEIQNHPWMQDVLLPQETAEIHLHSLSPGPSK

| SMILES | pKi |
| --- | --- |
| Cc1noc(C)c1-c1nc(C(=O)Nc2cnn(C)c2N2CCC[C@H](N)CC2)c(N)s1 [Example 421, 5-amino-N-[5-[(4S)-4-aminoazepan-1-yl]-1-methyl-pyrazol-4-yl]-2-(3,5-dimethylisoxazol-4-yl)thiazole-4-carboxamide] | 8.36 |
| COC1CCC2(c3c(NC(=O)c4nc(-c5ccccc5F)sc4N)cnn3C)CCC1N2 (stereo not shown) [Example 423, 5-amino-2-(2-fluorophenyl)-N-[5-(2-methoxy-8-azabicyclo[3.2.1]octan-5-yl)-1-methyl-pyrazol-4-yl]thiazole-4-carboxamide] | 9.44 |
| COc1nccc(C)c1-c1nc(C(=O)Nc2cnn(C)c2N2CCC[C@H](N)CC2)c(N)s1 [Example 427, 5-amino-N-[5-[(4S)-4-aminoazepan-1-yl]-1-methyl-pyrazol-4-yl]-2-(2-methoxy-4-methyl-3-pyridyl)thiazole-4-carboxamide] | 8.43 |
| Cc1nn(C)cc1-c1nc(C(=O)Nc2cnn(C)c2N2CC[C@@H](N)[C@H](F)CC2)c(N)s1 [Example 437, 5-amino-N-[5-[(4R,5R)-4-amino-5-fluoro-azepan-1-yl]-1-methyl-pyrazol-4-yl]-2-(1,3-dimethylpyrazol-4-yl)thiazole-4-carboxamide] | 9.32 |
| COC1(C)CC(N)CCN(c2c(NC(=O)c3nc(-c4ccncc4F)sc3N)cnn2C)C1 (stereo not shown) [Example 475, 5-amino-N-[5-(5-amino-3-methoxy-3-methyl-azepan-1-yl)-1-methyl-pyrazol-4-yl]-2-(3-fluoro-4-pyridyl)thiazole-4-carboxamide] | 9.67 |

Continued, values first:

| pKi | SMILES |
| --- | --- |
| 8.93 | Cc1ncccc1-c1nc(C(=O)Nc2cnn(C)c2N2CC[C@@H](N)[C@H](F)CC2)c(N)s1 [Example 430, 5-amino-N-[5-[(4R,5R)-4-amino-5-fluoro-azepan-1-yl]-1-methyl-pyrazol-4-yl]-2-(2-methyl-3-pyridyl)thiazole-4-carboxamide] |
| 8.98 | Cc1cc(-c2nc(C(=O)Nc3cnn(C)c3N3CC[C@@H](N)[C@H](F)CC3)c(N)s2)ccn1 [Example 431, 5-amino-N-[5-[(4R,5R)-4-amino-5-fluoro-azepan-1-yl]-1-methyl-pyrazol-4-yl]-2-(2-methyl-4-pyridyl)thiazole-4-carboxamide] |
| 8.97 | Cn1ncc(NC(=O)c2nc(-c3cc(C#N)ccc3F)sc2N)c1N1CC[C@@H](N)[C@H](F)CC1 [Example 442, 5-amino-N-[5-[(4R,5R)-4-amino-5-fluoro-azepan-1-yl]-1-methyl-pyrazol-4-yl]-2-(5-cyano-2-fluoro-phenyl)thiazole-4-carboxamide] |
| 8.60 | Cc1cc(-c2nc(C(=O)Nc3cnn(C)c3N3CC[C@@H](N)[C@H](F)CC3)c(N)s2)cc(C)n1 [Example 443, 5-amino-N-[5-[(4R,5R)-4-amino-5-fluoro-azepan-1-yl]-1-methyl-pyrazol-4-yl]-2-(2,6-dimethyl-4-pyridyl)thiazole-4-carboxamide] |
| 7.45 | Cn1ncc(NC(=O)c2nc(-c3cncc(C#N)c3)sc2N)c1N1CC[C@@H](N)[C@H](F)CC1 [Example 444, 5-amino-N-[5-[(4R,5R)-4-amino-5-fluoro-azepan-1-yl]-1-methyl-pyrazol-4-yl]-2-(5-cyano-3-pyridyl)thiazole-4-carboxamide] |
| 9.35 | Cc1cnc(C)c(-c2nc(C(=O)Nc3cnn(C)c3N3CC[C@@H](N)[C@H](F)CC3)c(N)s2)c1 [Example 445, 5-amino-N-[5-[(4R,5R)-4-amino-5-fluoro-azepan-1-yl]-1-methyl-pyrazol-4-yl]-2-(2,5-dimethyl-3-pyridyl)thiazole-4-carboxamide] |
| 9.62 | Cn1ncc(NC(=O)c2nc(-c3c(F)cncc3F)sc2N)c1N1CC[C@H](N)[C@@H](F)CC1 [Example 471, 5-amino-N-[5-[(4S,5S)-4-amino-5-fluoro-azepan-1-yl]-1-methyl-pyrazol-4-yl]-2-(3,5-difluoro-4-pyridyl)thiazole-4-carboxamide] |
| 9.37 | COC1(C)CC(N)CCN(c2c(NC(=O)c3nc(-c4c(F)cncc4F)sc3N)cnn2C)C1 (stereo not shown) [Example 474, 5-amino-N-[5-(5-amino-3-methoxy-3-methyl-azepan-1-yl)-1-methyl-pyrazol-4-yl]-2-(3,5-difluoro-4-pyridyl)thiazole-4-carboxamide] |

system: MM1.S (multiple myeloma) cells; assay: In vitro cell proliferation, MM1.S multiple myeloma cells (CellTiter-Glo, ATP); assay type: cell-based; conditions: 72 hours, read-out: Prolif MM1S ATP (EC50)
Procedure: BaF3, a murine interleukin-3 dependent pro-B cell line, parental cells, BaF3 PIM1 cells, BaF3 PIM2 cells, and MM1.S (multiple myeloma) cells were seeded at 2 k/well, 5 k/well, 5 k/well, and 10 k/well respectively, in a 384-well plate, at 45 μL/well. Test compound was added at 5 μL/well. BaF3 cells (parental and transfected) were incubated overnight, while MM1.S cells were incubated for 72 hours at 37° C., 5% CO2. […] IC50/EC50 values for the test compound were calculated.

| pEC50 | SMILES |
| --- | --- |
| 6.74 | CCOC1CCN(c2c(NC(=O)c3nc(-c4c(F)cccc4F)sc3N)cnn2C)CCC1N (stereo not shown) [Example 385, 5-amino-N-[5-(4-amino-5-ethoxy-azepan-1-yl)-1-methyl-pyrazol-4-yl]-2-(2,6-difluorophenyl)thiazole-4-carboxamide] |

same assay, conditions: Homo sapiens, MM1.S, 72 h, read-out: Prolif MM1S ATP (EC50)

| pEC50 | SMILES |
| --- | --- |
| 5.89 | Cn1ncc(NC(=O)c2nc(-c3c(F)cccc3F)sc2N)c1N1CCC(O)CC(F)(F)C1 (single isomer, unassigned) [Example 371, 5-amino-N-[5-(3,3-difluoro-5-hydroxy-azepan-1-yl)-1-methyl-pyrazol-4-yl]-2-(2,6-difluorophenyl)thiazole-4-carboxamide] |
| 5.46 | Cn1ncc(NC(=O)c2nc(-c3c(F)cccc3F)sc2N)c1C1CC[C@@H](N)[C@@H](F)CC1 (single isomer, unassigned) [Example 381] |
| 5.19 | Cn1ncc(NC(=O)c2nc(-c3c(F)cccc3F)sc2N)c1N1CCC2NCCOC2CC1 (single isomer, unassigned) [Example 397, N-[5-(3,4,4a,5,6,8,9,9a-octahydro-2H-[1,4]oxazino[2,3-d]azepin-7-yl)-1-methyl-pyrazol-4-yl]-5-amino-2-(2,6-difluorophenyl)thiazole-4-carboxamide] |
| 7.16 | Cn1ncc(NC(=O)c2nc(-c3c(F)cccc3F)sc2N)c1N1CC[C@@H](N)[C@H](F)CC1 [Example 139, 5-amino-N-(5-((4R,5R)-4-amino-5-fluoroazepan-1-yl)-1-methyl-1H-pyrazol-4-yl)-2-(2,6-difluorophenyl)thiazole-4-carboxamide] |

system: BaF3 parental cells; assay: In vitro cell proliferation, BaF3 parental line + IL3 (CellTiter-Glo); assay type: cell-based, murine; conditions: BaF3 parental cells with IL-3, incubated overnight; read-out: Prolif BaF3 + IL3 (IC50)

| SMILES | pIC50 |
| --- | --- |
| Cn1ncc(NC(=O)c2nc(-c3c(F)cccc3F)sc2N)c1N1CCC(N)C(O)CC1 (single isomer, unassigned) [Example 333, 5-amino-N-[5-(4-amino-5-hydroxy-azepan-1-yl)-1-methyl-pyrazol-4-yl]-2-(2,6-difluorophenyl)thiazole-4-carboxamide] | < 4.60 |

same assay, conditions: Mus musculus, BaF3, BaF3 parental cells with IL-3, incubated overnight; read-out: Prolif BaF3 + IL3 (IC50)

| SMILES | pIC50 |
| --- | --- |
| Cn1ncc(NC(=O)c2nc(-c3c(F)cccc3F)sc2N)c1N1CCC(N)C(C(F)F)CC1 (single isomer, unassigned) [Example 511, 5-amino-N-[5-[4-amino-5-(difluoromethyl)azepan-1-yl]-1-methyl-pyrazol-4-yl]-2-(2,6-difluorophenyl)thiazole-4-carboxamide] | 4.61 |
| CC(=O)O[C@H]1CCN(c2c(NC(=O)c3nc(-c4c(F)cccc4F)sc3N)cnn2C)CC[C@H]1N [Example 487, [(4S,5R)-5-amino-1-[4-[[5-amino-2-(2,6-difluorophenyl)thiazole-4-carbonyl]amino]-2-methyl-pyrazol-3-yl]azepan-4-yl]acetate] | 4.70 |
| Cn1ncc(NC(=O)c2nc(-c3c(F)cccc3F)sc2N)c1N1CC[C@@H]2OC(=O)N[C@]2(C)CC1 [Example 509, 5-amino-2-(2,6-difluorophenyl)-N-(1-methyl-5-((3aR,8aS)-3a-methyl-2-oxotetrahydro-2H-oxazolo[5,4-d]azepin-6(7H,8H,8aH)-yl)-1H-pyrazol-4-yl)thiazole-4-carboxamide] | < 4.60 |
